Source: patent US7456133B2, “Substituted arylketones” (Bayer CropScience AG, priority 2001, dated 2008)

How the values were obtained:
[1] = Log P by reversed-phase HPLC (C 18), acidic range; assay type: physicochemical; conditions: reversed-phase HPLC column (C 18); given in the preparation examples, acidic or neutral range not given
Method: Log P values given in the tables were determined in accordance with EEC Directive 79/831 Annex V.A8 by HPLC (High Performance Liquid Chromatography) using a reversed-phase column (C 18). Temperature: 43° C. (a) Mobile phases for the determination in the acidic range: 0.1% aqueous phosphoric acid, acetonitrile; linear gradient from 10% acetonitrile to 90% acetonitrile—the corresponding measurement results in Tables 1 and 2 are labelled^a).

[2] = tested on: weeds; experiment: Pre-emergence test, damage to weeds; assay type: in vivo; conditions: soil sprayed 24 hours after sowing, rated after three weeks
Method: Solvent: 5 parts by weight of acetone
(§1) Emulsifier: 1 part by weight of alkylaryl polyglycol ether
(§2) To produce a suitable preparation of active compound, 1 part by weight of active compound is mixed with the stated amount of solvent, the stated amount of emulsifier is added and the concentrate is diluted with water to the desired concentration.
Seeds of the test plants are sown in normal soil. After 24 hours, the soil is sprayed with the preparation of active compound such that the particular amount of active compound desired is applied per unit area. The concentration of active compound in the spray liquor is chosen such that the particular amount of active compound desired is applied in 1000 litres of water per hectare.
(§3) After three weeks, the degree of damage to the plants is rated in % damage in comparison to the development of the untreated control. The figures denote: • 0%=no effect (like untreated control) • 100%=total destruction

[3] = tested on: weeds; experiment: Post-emergence test, damage to weeds; assay type: in vivo; conditions: test plants of 5-15 cm sprayed, rated after three weeks
Method: Solvent: 5 part by weight of acetone
as §1, §2
Test plants of a height of 5-15 cm are sprayed with the preparation of active compound such that the particular amounts of active compound desired are applied per unit area. The concentration of the spray liquor is chosen such that the particular amounts of active compound desired are applied in 1000 l of water/ha.
as §3

| chromatographic logP [1] | Compound | activity against weeds [2] | activity against weeds [3] |
| --- | --- | --- | --- |
| 1.41 | CCn1ncc(C(=O)c2ccc(Cl)c(OCCNC(C)=O)c2Cl)c1O [Example I-2-1, N-(2-{2,6-dichloro-3-[(1-ethyl-5-hydroxy-1H-pyrazol-4-yl)-carbonyl]-phenoxy}-ethyl)-acetamide] | strong activity | strong activity |
| 2.74 | CC(C)NC(=S)NCc1c(Cl)ccc(C(=O)C2=C(O)CCCC2=O)c1Cl [Example I-2-3] | strong activity | strong activity |
